From ChEMBL document CHEMBL2062396, “Synthesis and classical pathway Complement inhibitory activity of C7-functionalized filifolinol derivatives, inspired in K-76 COOH” (Eur J Med Chem, 2012)
Where a name gives a salt, the structure may show the parent alone.

Test: Inhibition of human classical pathway Complement system assessed as inhibition of complement mediated hemolysis of sensitized sheep RBCs using fresh human sera by Weissman method
Conditions: not given; call rule not given here

For C[C@@H]1CC[C@H](O)C(C)(C)[C@]12Cc1cc(C(=O)[O-])cc(CC(=O)O)c1O2.[Na+], the IC50 was “Not Active”.

Same assay, conditions: read-out: IC50

First: C[C@@H]1CC[C@H](O)C(C)(C)[C@]12Cc1cc(C(=O)O)cc(Cl)c1O2
Second: C[C@@H]1CC[C@H](O)C(C)(C)[C@]12Cc1cc(C(=O)O)cc(N)c1O2
The IC50 of the first is 4.7-fold lower: 1540 µM for the first, 7270 µM for the second. The first is the more potent here.

Going from C[C@@H]1CC[C@H](O)C(C)(C)[C@]12Cc1cc(C(=O)O)ccc1O2 [FILIFOLINOIC ACID SODIUM SALT] to C[C@@H]1CC[C@H](O)C(C)(C)[C@]12Cc1cc(C(=O)O)cc(Br)c1O2, the IC50 falls from 2000 µM to 840 µM (2.4-fold). The second is the more potent here.

First: C[C@@H]1CC[C@H](O)C(C)(C)[C@]12Cc1cc(C(=O)O)cc(-c3ccc(C(=O)O)cc3)c1O2
Second: C[C@@H]1CC[C@H](O)C(C)(C)[C@]12Cc1cc(C(=O)O)cc(-c3ccccc3)c1O2
The IC50 of the first is 130-fold higher: 18000 µM for the first, 140 µM for the second.

Compared with C[C@@H]1CC[C@H](O)C(C)(C)[C@]12Cc1cc(C(=O)O)cc([N+](=O)[O-])c1O2, C[C@@H]1CC[C@H](O)C(C)(C)[C@]12Cc1cc(C(=O)O)cc(I)c1O2 is 1.6-fold lower in IC50: 1880 µM for the first, 1140 µM for the second.

C[C@@H]1CC[C@H](O)C(C)(C)[C@]12Cc1cc(C(=O)O)cc(CC(O)CO)c1O2 (mixture of isomers) and C[C@@H]1CC[C@H](O)C(C)(C)[C@]12Cc1cc(C(=O)O)cc(CCC(=O)O)c1O2 are the same in IC50: 360 µM for the first, 360 µM for the second.

Compared with C[C@@H]1CC[C@H](O)C(C)(C)[C@]12Cc1cc(C(=O)O)cc(/C=C/C(=O)O)c1O2, C[C@@H]1CC[C@H](O)C(C)(C)[C@]12Cc1cc(C(=O)O)cc(C(=O)O)c1O2 is 7.2-fold higher in IC50: 970 µM for the first, 7000 µM for the second.

Going from C[C@@H]1CC[C@H](O)C(C)(C)[C@]12Cc1cc(C(=O)O)cc(C(F)(F)F)c1O2 to C[C@@H]1CC[C@H]2C(C)(C)[C@H](O)[C@H](O)C[C@]2(C)[C@@]12Cc1c(O)cc(C(=O)O)c(C=O)c1O2, the IC50 rises from 100 µM to 570 µM (5.7-fold).

For CC1(C)CC[C@]2(C(=O)O)CC[C@]3(C)C(=CC[C@@H]4[C@@]5(C)CC[C@H](OC(=O)COCC(=O)O)C(C)(C)[C@@H]5CC[C@]43C)[C@@H]2C1 [OLEANOLIC ACID HEMIDIGLYCOLATE SODIUM SALT], the IC50 was 31 µM.
